Test results from a melting point compilation (Tetko et al.; mined from patent text by program, amines drawn as free bases though some values may be those of a salt).

SMILES | melting point [°C]
O=C(NC(=O)c1ccccc1Cl)Nc1cc(C(F)(F)F)c(F)cc1Br | 192
O=C1CCC(c2ccc(CCCCCNC(=O)c3cccnc3)cc2)=NN1 | 133 to 134
N#CCc1ccc(CCOc2ccc(CC3SC(=N)NC3=O)cc2)nc1 (stereo not drawn) | 211 to 212
O=C(Cl)N1CCNC1=O | 150
COc1ccc(Nc2ccc(OCc3ccccc3)cc2)c(C(=O)O)c1 | 167 to 168
COc1ccc(-n2c(-c3ccc(-c4ccc(-c5nc6c7ccccc7c7ccccc7c6n5-c5ccc(OC)cc5)cc4)cc3)nc3c4ccccc4c4ccccc4c32)cc1 | 403
O=Cc1c2ccccc2c(OCCO)c2ccccc12 | 142 to 144
CC(=O)c1ccc(NC(=O)c2ccc(C3OCC(SC(C)C(O)(Cn4cncn4)c4ccc(F)cc4F)CO3)cc2)cc1 (stereo not drawn) | 171
CN1c2nnnn2-c2ccc(Cl)cc2C1c1ccccc1 (stereo not drawn) | 280
CSN=C1C(=O)N2C1SC(C)(C)C2C(=O)OCC(Cl)(Cl)Cl (stereo not drawn) | 129 to 130
COc1cc(Cc2ccc3nc(N)nc(N)c3c2)cc(OC)c1OC | 219 to 221
COc1ccccc1CCN1CC(=O)N(c2cnn(Cc3c(C)noc3C)c2)C1=O | 97 to 98
CC(=O)NC[C@H]1CN(c2ccc(-n3cc(-c4ccc(Cl)cc4)cn3)c(F)c2)C(=O)O1 | 238
COCc1c(OC)cc(Cc2cnc(N)nc2N)cc1OC | 221 to 223
O=C1c2ccccc2C(=O)N1CC(=O)N1c2ccccc2N(Cc2ccc3ccccc3n2)C(=O)[C@H]2CCC[C@H]21 (relative stereo) | 258 to 260
CCOC(=O)c1ccc(-c2nc3cc4c(cc3[nH]2)NC(=O)C4(C)C)c(OC)c1 | 235 to 240
CC(C)n1cc(C2(c3ccc(F)c(Br)c3)N=C(N)N(C)C2=O)cn1 (stereo not drawn) | 80 to 82
N#Cc1ccc(-c2ccc3oc(CCN)cc3c2)cc1 | 118 to 120
CCOC(=O)/C=C/c1ccc(N2CCC(=O)CC2)cc1 | 96 to 98
O=C1CCOc2ccc(O)cc21 | 133 to 136
N#CC(=C(Nc1cc(C(F)(F)F)cc(C(F)(F)F)c1)NC1CCC1)S(=O)(=O)c1ccc(Cl)cc1 | 190 to 193
O=C(Nc1ccc(-n2nc(C(F)(F)F)cc2C(F)(F)F)cc1)c1cccc(Br)c1 | 158 to 160
O=C(O)c1cccc(Oc2cccc(-c3nn(Cc4ccc(C(F)(F)P(=O)(O)O)c(Cl)c4)c(=Nc4ccc(Cl)c(Cl)c4)s3)c2)c1 | 212 to 215
COC1(C)Oc2cccc(O)c2O1 (stereo not drawn) | 106 to 109
COc1cccc(C2(c3cccc(OC)c3)CC2C=CC(=O)NC(C)CCCc2cccnc2)c1 (single isomer, unassigned) | 104 to 106

SMILES | melting point [°C]
CC(C)c1nc2ccccn2c(=O)c1-c1ccc(NC2CCN(C(=O)OC(C)(C)C)C2)cc1 (stereo not drawn) | 232 to 236
CCOc1ccc(C(F)(F)F)cc1-c1cccn2nc(Nc3ccc4c(c3)CCN(CCS(C)(=O)=O)CC4)nc12 | 105 to 109
COC(=O)c1cc([N+](=O)[O-])c(N)c(F)c1F | 184
CCc1ccc(OCC(O)CN2CCC3(CC2)CSC2=C(O3)c3ccccc3C(=O)C2=O)cc1 (stereo not drawn) | 137 to 138
COc1cc(NC(=O)C(C#N)=CNc2ccsc2)c(Cl)cc1Cl | > 250
Brc1ccc2nc(-c3ccccc3)cn2c1 | 192 to 194
CC1=C(C)C(=O)N(c2ccc(Cl)c(Cl)c2)C1=O | 188
CC#CNC(=O)NC(=NC(=O)NCCCCCCCC)SC | 123 to 125
CCOc1cccc(-c2ccc(C3=CCN(S(=O)(=O)CC(=O)NO)CC3)cc2C)c1 | 151 to 153
CCN1C(=O)C(C)(C)C(=O)N(C)c2cc(OCCCn3c(=O)c(-c4ccccc4)c(Cl)c4ccccc43)ccc21 | 122 to 128
OCC12OC1CC(OCc1ccccc1)C2COCc1ccccc1 (stereo not drawn) | 60 to 62
Cc1ccc(-c2ccc(S(=O)(=O)N3CCN(C(=O)C4CCN(c5ccncc5)CC4)CC3)cc2)cc1 | 213 to 217
O=C(NCC12CC3CC(CC(C3)C1)C2)c1cccc(O)c1Cl | 234 to 235
CC1(C)CC(OC(=O)N=NC(=O)OC2CC(C)(C)N(OC3CCCCC3)C(C)(C)C2)CC(C)(C)N1OC1CCCCC1 | 189 to 191
CC(=O)SCC(CC(C)C)C(=O)NCCN1CCOCC1 (stereo not drawn) | 54 to 59
CC1(C)SC2C(NC(=O)Nc3ccccc3)C(=O)N2C1c1nnn[nH]1 (stereo not drawn) | 110 to 120
CN(C)C(=O)c1nn(-c2ccncc2)c(=O)c2c1c1ccc(Cl)cc1n2C | 276 to 278
c1ccc2c(c1)CNc1ccccc1N2 | 114 to 116
CO[C@H]1CN(c2c(F)c(N)c3c(=O)c(C(=O)O)cn([C@@H]4C[C@@H]4F)c3c2C)C[C@@H]1C1(N)CC1 | 202 to 204
CCOC(=O)COc1ccc(NC(C)=O)cc1NC(=O)c1ccc(OCCCCc2ccccc2)cc1 | 130 to 132
Oc1cc(C(F)(F)F)nn1-c1ccccc1 | 190 to 192
CCN(CC)CCNC(=O)c1cc(C#N)c(Cl)cc1OC | 104 to 105
CN(C)c1ccc(C=CC(=O)CC(=O)C=Cc2ccc(N(C)C)cc2)cc1 | 207 to 208
Cc1ccc(-c2c(C#N)cnc3ccccc23)cc1 | 96 to 97
CN1CCN(c2nc3cccc4c3n2CCC4)CC1 | 112 to 113

SMILES | melting point [°C]
CN1C(=O)[C@H](NC(=O)CNc2ccccc2Cl)N=C(c2ccccc2)c2ccccc21 | 222 to 224
OCCCCOC(c1ccccc1)(c1ccccc1)c1ccccc1 | 73 to 74
CN(C)C(=O)C1CCc2c([nH]c3ccc(Cl)cc23)C1 (stereo not drawn) | 176 to 177
CC(=O)OC(C)OC(=O)[C@H](Cc1ccc(-c2c(C)n(C)c(=O)n(C)c2=O)cc1)NC(=O)c1c(Cl)cccc1Cl (stereo partly drawn) | 168 to 170
CCCCN(Cc1ccc(-c2ccccc2-c2nnnn2C(c2ccccc2)(c2ccccc2)c2ccccc2)cc1)c1cc(C)nc(C)n1 | 125 to 127
COC(=O)c1ncccc1C(=O)c1ccc(-n2ccnc2)cc1 | 150 to 157
CN(C)c1ccccc1CSC1=NC(SCc2ccccc2)=NC1(C)C | 91 to 92
CC(C)(C)[Si](C)(C)OCc1ccc(C(=NO)C(F)(F)F)cc1 | 63 to 65
CCc1nc(SC)c(C(=O)O)n1Cc1ccc(-c2ccccc2S(=O)(=O)NC(=O)NCc2ccccc2)cc1 | 164
O=C(NCC12CC3CC(CC(C3)C1)C2)c1c(Cl)ccc2nc(N3CCC(C(=O)NO)CC3)ccc12 | 189 to 196
CCCOc1cnc(CO)cc1O | 159 to 160
CCOC(=O)Nc1cc(OC(C)C)c(Cl)cc1F | 89 to 91
CSC(=NC#N)NCCSCc1cccnc1Nc1ccccc1 | 120 to 123
O=C1COCCOCC(=O)NCCOCCOCCN1 | 111
CCCc1nc(CO)c[nH]1 | 95 to 101
CC(=O)c1c(-c2cc(C)cs2)sc(-c2ccncc2)c1C | 106 to 108
Cc1cc(-c2cc(C(F)(F)F)n3ncc(-c4ccncc4)c3n2)ccc1C(F)(F)F | 227
CCOC(=O)CCSc1nnsc1-c1ccc(Cl)cc1 | 71.5 to 73.5
Cc1cccc2c1[nH]c1c(C(=O)O)cccc12 | 286
O=[N+]([O-])c1cc2c(Nc3ccc(F)c(Cl)c3)ncnc2cc1O[C@@H]1CCOC1 | 244
CC1(C)NC(=O)N(c2ccc([N+](=O)[O-])cc2C(F)(F)F)C1=O | 175 to 176
Cc1c(Cl)cc(C(C)(C)C)c(O)c1-c1nc2cc(OC(F)(F)F)ccc2[nH]1 | 243 to 244
O=C(c1cccnc1)N1CCC=N1 | 81 to 82
COc1ccc(N2CCN(c3ccc(NC(=O)NN)cc3)CC2)cc1 | 300
CC(S)C(O)(Cn1cncn1)c1ccc(F)cc1F (stereo not drawn) | 145 to 147

SMILES | melting point [°C]
N#CCN1CCC(N2CCN(CCCN3CCCCC3)C2=C(C#N)C#N)CC1 | 135 to 136
CC1CN=C2C=CC(c3cccnc3)=NN21 (stereo not drawn) | 104 to 105
CC(NC(=O)Cc1cc(F)cc(F)c1)C(=O)NC1C(=O)N(C)C(c2ccccc2)c2ccccc21 (stereo not drawn) | 115
Cc1c(Cc2cccc(C(F)(F)F)c2)oc2c(-c3cc(C(=O)NCCC#N)ccn3)cccc12 | 200 to 201
Cc1ccc2c(c1)c(-c1ccc(F)cc1)c(C)n2C1=CCN(CCN2CCNC2=O)CC1 | 151 to 153
CC[C@H]1[C@@H](O)[C@H](C)C(=O)N1c1ccc(C#N)c(OC)c1 | 78 to 81
CC(C)CCCC(C)C1CCC2C3CCC4=CC(=O)C=CC4(C)C3CCC12C (stereo not drawn) | 50 to 57
Nc1c(Cl)cc(C(O)CNCCCCCCOCCOCCc2ccccn2)cc1Cl (stereo not drawn) | 45.5 to 46.5
N#CCCNCCCC(=O)O | 122 to 124
O=C(c1ccncc1)N1CCN=C1Nc1c(Cl)cccc1Cl | 82.5 to 83.5
CS(=O)(=O)c1ccc(-n2cc(CC(=O)O)nc2-c2ccc(Cl)cc2)cc1 | 263 to 264
CC(=O)OC[C@H](c1ccccc1)N1C(=O)C=CC1=O | 131 to 132
CNC(=NS(C)(=O)=O)NCc1cccc(-c2csc(N=C(N)N)n2)n1 | 254 to 255
CCn1ncc2c3onc(-c4ccc(OC)cc4)c3cnc21 | 156 to 157
CC(C)NC(=N)NC1=NC(=O)C(=O)N1c1ccc(Cl)c(Cl)c1 | 244
C#CCONC(=O)c1nc(-c2ccc(Cl)c(OC)c2F)cc(N)c1Cl | 180 to 183
CCOC(=O)CC=Cc1ccc2ccccc2c1O | 83 to 84
CC(C)(O)C1COCc2nc3c(N)nc4ccccc4c3n21 (stereo not drawn) | 216 to 217
N#Cc1ccc(-c2cc(C(=O)N[C@H]3CC[C@H](C(=O)O)CC3)c(=O)n(Cc3ccccc3)n2)cc1 | 215 to 218
COC(=O)C1=C(N)NC(C)=C([N+](=O)[O-])C1c1ccccc1OCCCCCN1CCN(c2ccccc2OC)CC1 (stereo not drawn) | 167
CN1CCC(=C2c3ccccc3CCc3ccc(C#N)cc32)CC1 | 152 to 154
Cc1cccnc1Cn1nnc2ccccc21 | 175 to 177
Cc1nc(N)c(O)c(=O)[nH]1 | > 300
